Here are results for seven molecules from ChEMBL document CHEMBL1201862, “PubChem BioAssay data set” (2004).

Structures are written as SMILES. “And” between values parts separate entries of the source, which are not always exact repeats. Identical values can stand only once.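 Where inhibition never reached the appropriate level, the endpoint shown equals the highest concentration tested. Otherwise, values were interpolated linearly from a five-concentration, 48-hour dose response in 96-well plates. Here, GI50 denotes the concentration required for 50% inhibition of growth.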 The source made the active and inactive calls. Rule as the data show it: active = GI50 up to about 1.1 µM and inactive = higher.

Test in all cases: growth of human tumour cells (NCI), 48 h
Assay [1] relates to K562.
The test system of assay [2] is NCI-H226.
In assay [3] the test system is CCRF-CEM.
Assay [4] concerns SNB-19.
Assay [5] deals with SK-OV-3.
For assay [6], the system named is A498.
The subject of assay [7] is UACC-257.
Assay [8] has as its system MOLT-4.
Assay [9] deals with SF-295.
Assay [10] has as its system ACHN.
Assay [11] has as its system TK-10.
Assay [12] deals with SK-MEL-2.
Assay [13] relates to LXFL 529.
In assay [14] the test system is NCI-H23.
Assay [15] deals with OVCAR-5.
Assay [16] has as its system HCT-15.
Assay [17] deals with COLO 205.
In assay [18] the test system is MDA-N.
The test system of assay [19] is NCI/ADR-RES.
The test system of assay [20] is MDA-MB-231.

With `COC(=O)CCC(NC(=S)N/N=C/c1ccccn1)C(=O)OC` (stereo unspecified), the GI50 in assay [1], in assay [2], in assay [3], in assay [4], in [5] and in assay [6] was > 100 µM (inactive) each time. The GI50 in [7], in assay [8], in [9], in assay [10], in [11] and in assay [12] was > 100 µM (inactive) in each case. The GI50 in assay [13] is > 100 µM (inactive); in assay [14] it was > 100 µM (inactive); in [15] it was 63.1 µM (inactive); in assay [16] it was above 100 µM; in assay [17] it was > 100 µM (inactive).

Consider `Cn1cnc([N+](=O)[O-])c1Sc1nnc(-c2cccnc2)n1C`, for which the GI50 in [1] was 19.9 µM (inactive); in [2], > 66.4 µM (inactive); in assay [3] it was 15.5 µM (inactive); in assay [4], > 100 µM (inactive); in assay [5] it was > 100 µM (inactive); in [6], > 79.1 µM (inactive). Moreover, the GI50 in [7] was 13.9 µM (inactive); in assay [8], 18.2 µM (inactive); in [9], > 100 µM (inactive); in assay [18], 19.5 µM (inactive); in [19], 46.6 µM (inactive); in assay [10] it was 17.1 µM (inactive). Besides, the GI50 in assay [20] was 19.2 µM (inactive); in assay [11], 16.8 µM (inactive); in assay [12], 18.5 µM (inactive); in assay [13], 12 µM (inactive); in assay [14], 23.1 µM (inactive); in assay [15] it was 67.3 µM (inactive). Further, the GI50 in [16] was 17.2 µM; in assay [17], 15.3 µM (inactive).

In the case of `CCC(=O)OCOc1ccc(/C=C2\CCC(CN(C)C)C2=O)cc1` (stereo unspecified), the GI50 was 1.85 µM (inactive) in [1]; 13.8 µM (inactive) in assay [2]; 1.61 µM (inactive) in assay [3]; 16.7 µM (inactive) in [4]; 15.7 µM (inactive) in assay [5]; 15.9 µM (inactive) in assay [6]. The GI50 in assay [7] is 3.39 µM (inactive); in assay [8] it was 2.51 µM (inactive); in assay [9], 8.85 µM (inactive); in [18] it was 5.47 µM (inactive); in [19], 2.96 µM (inactive); in assay [10], 7.73 µM (inactive). Besides, the GI50 in [20] is 3.67 µM (inactive); in [11], 9.12 µM (inactive); in assay [12], 11 µM (inactive); in assay [13], 2.94 µM (inactive); in [14], 5.42 µM (inactive); in assay [15], 16.8 µM (inactive). In addition, the GI50 was 3.13 µM in assay [16] and 3.78 µM (inactive) in assay [17].

Take `CCN(CC)c1ccc2cc3ccc(N(CC)CC)cc3[o+]c2c1`: the GI50 in assay [1] is 2.82 µM (inactive); in [2] it was 5.62 µM (inactive); in assay [3], 0.0419 µM (active); in [4] it was 7.8 µM (inactive); in assay [5], 6.52 µM (inactive); in assay [6], 14.6 µM (inactive). Also, the GI50 in assay [7] is 2.59 µM (inactive); in assay [8], 0.127 µM (active); in [9], 4.48 µM (inactive); in assay [10], 1.26 µM (inactive); in assay [11], 6.08 µM (inactive); in assay [12], 1.34 µM (inactive). Further, the GI50 in assay [13] was 0.457 µM (active); in assay [14], 0.946 µM (active); in assay [15] it was 6.82 µM (inactive); in [16], 2.07 µM; in assay [17], 0.798 µM (active).

As for `O=c1c(Cl)c(Cl)cnn1-c1ccccc1`, the GI50 is 968 nM (active) and 929 nM (active) in [1]; 9.38 µM (inactive) and 9.14 µM (inactive) in assay [2]; 14.9 µM (inactive) and 17.1 µM (inactive) in [6]; 13 µM (inactive) and 6.85 µM (inactive) in assay [7]; 1.82 µM (inactive) and 1.47 µM (inactive) in assay [8]; 2.14 µM (inactive) and 1.81 µM (inactive) in [18]. For the same molecule, the GI50 in assay [19] is 2 µM (inactive); in assay [10], 7.11 µM (inactive) and 5.04 µM (inactive); in assay [20] it was 1.77 µM (inactive); in [11] it was 15.6 µM (inactive) and 9.33 µM (inactive); in assay [12], 3.94 µM (inactive) and 3.28 µM (inactive); in [13] it was 1.67 µM (inactive) and 1.71 µM (inactive). Besides, in assay [16], the GI50 is 2.35 µM and 1.85 µM.

As for `COc1cc2c(cc1O)[C@H](C)C(c1ccc(Cl)cc1)O2` (stereo partly specified), the GI50 in assay [1] was 18.3 µM (inactive); in assay [2], 24.9 µM (inactive); in assay [3] it was 14.5 µM (inactive); in assay [4], 74.8 µM (inactive); in assay [5], 23.3 µM (inactive); in assay [6], 11.9 µM (inactive). Moreover, the GI50 was 19.8 µM (inactive) in assay [7]; 15.3 µM (inactive) in [8]; 31 µM (inactive) in [9]; 14.1 µM (inactive) in assay [10]; 24.4 µM (inactive) in [11]; 21.3 µM (inactive) in assay [12]. Moreover, the GI50 in [13] is 17.2 µM (inactive); in [14], 21 µM (inactive); in assay [15], 25.4 µM (inactive); in assay [16] it was 13.1 µM; in [17], 27.2 µM (inactive).

As for `CC(C)(CN1CCCCC1)C(=O)/C=C/c1ccc(Cl)c(Cl)c1`, the GI50 was 1.59 µM (inactive) in assay [1]; 1.71 µM (inactive) in assay [2]; 1.09 µM (active) in [3]; 3.15 µM (inactive) in assay [4]; 2.34 µM (inactive) in assay [5]; 1.67 µM (inactive) in assay [6]. Besides, the GI50 is 1.18 µM (inactive) in [7]; 1.63 µM (inactive) in [8]; 2.45 µM (inactive) in assay [9]; 1.55 µM (inactive) in assay [10]; 1.48 µM (inactive) in assay [11]; 1.73 µM (inactive) in [12]. Further, the GI50 in assay [13] was 1.46 µM (inactive); in [14], 1.71 µM (inactive); in assay [15], 1.71 µM (inactive); in assay [16], 1.41 µM; in assay [17], 1.5 µM (inactive).
